This assay addresses T1, Lethal factor (Bacillus anthracis, UniProt P15917).
T1 sequence (P15917 whole entry): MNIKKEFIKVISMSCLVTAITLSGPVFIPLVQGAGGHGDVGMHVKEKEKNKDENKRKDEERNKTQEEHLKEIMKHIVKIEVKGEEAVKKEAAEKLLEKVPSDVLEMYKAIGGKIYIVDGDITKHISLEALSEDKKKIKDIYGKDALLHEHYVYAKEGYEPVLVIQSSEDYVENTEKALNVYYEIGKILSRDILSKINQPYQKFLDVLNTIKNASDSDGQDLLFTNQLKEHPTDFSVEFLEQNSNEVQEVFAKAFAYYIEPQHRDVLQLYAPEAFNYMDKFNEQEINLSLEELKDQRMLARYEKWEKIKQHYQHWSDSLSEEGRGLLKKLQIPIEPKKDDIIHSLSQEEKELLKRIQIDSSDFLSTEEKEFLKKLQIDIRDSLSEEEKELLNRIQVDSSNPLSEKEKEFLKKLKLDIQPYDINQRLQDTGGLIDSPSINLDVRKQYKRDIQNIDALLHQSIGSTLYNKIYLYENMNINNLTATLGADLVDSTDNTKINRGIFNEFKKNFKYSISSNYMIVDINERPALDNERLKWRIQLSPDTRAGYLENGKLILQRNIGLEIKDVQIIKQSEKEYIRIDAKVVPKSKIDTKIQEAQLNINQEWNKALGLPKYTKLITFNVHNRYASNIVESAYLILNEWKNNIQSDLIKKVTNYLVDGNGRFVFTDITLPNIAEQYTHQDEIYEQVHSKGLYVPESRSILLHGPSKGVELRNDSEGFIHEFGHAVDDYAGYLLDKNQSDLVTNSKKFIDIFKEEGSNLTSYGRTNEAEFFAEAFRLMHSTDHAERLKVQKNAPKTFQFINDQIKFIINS
Kind of assay: Inhibition of Bacillus anthracis lethal factor assessed as cleavage of MAPKK by fluorescence peptide cleavage assay.

For orientation: Ki means a dissociation constant, usually derived from enzyme kinetics or from competition with a known ligand.

In the case of `COc1ccc(-c2ccc(S(=O)(=O)Nc3sccc3-c3nc4ccccc4s3)cc2)cc1` [N-(3-(benzo[d]thiazol-2-yl)thiophen-2-yl)-4'-methoxybiphenyl-4-sulfonamide], the Ki was determined as 1000 nM.

(Values after BindingDB's records for doi:10.1016/j.bmc.2009.03.040 (Institute For Medical Research, 2009).)
